Data on 1 compound can be found in article PMC7554656 (Molecular Metabolism, 2020).

In the experiment the target is T1, SGLT2 (sodium-glucose cotransporter 2) (Homo sapiens, UniProt P31639).
T1 sequence (P31639 1-672): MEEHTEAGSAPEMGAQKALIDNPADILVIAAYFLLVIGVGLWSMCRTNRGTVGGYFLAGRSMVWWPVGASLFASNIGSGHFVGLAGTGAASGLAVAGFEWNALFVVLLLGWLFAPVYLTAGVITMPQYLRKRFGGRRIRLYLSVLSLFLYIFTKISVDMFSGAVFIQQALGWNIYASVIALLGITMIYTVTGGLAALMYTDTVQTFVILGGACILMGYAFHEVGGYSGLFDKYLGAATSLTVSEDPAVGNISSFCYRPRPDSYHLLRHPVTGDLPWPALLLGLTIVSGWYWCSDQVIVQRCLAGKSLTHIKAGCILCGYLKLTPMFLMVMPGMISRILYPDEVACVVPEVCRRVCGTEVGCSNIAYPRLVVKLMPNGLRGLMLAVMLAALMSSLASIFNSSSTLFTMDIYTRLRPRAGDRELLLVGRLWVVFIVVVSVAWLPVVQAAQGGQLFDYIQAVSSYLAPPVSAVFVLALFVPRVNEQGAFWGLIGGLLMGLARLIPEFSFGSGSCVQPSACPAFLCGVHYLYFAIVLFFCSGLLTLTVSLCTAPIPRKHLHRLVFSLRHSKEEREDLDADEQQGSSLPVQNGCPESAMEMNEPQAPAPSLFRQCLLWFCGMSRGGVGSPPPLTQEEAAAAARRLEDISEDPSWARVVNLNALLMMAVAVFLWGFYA
Briefly: inhibition of […]-alpha-methyl-D-glucopyranoside uptake in HEK293-hSGLT2 cells. The experiment is classed as cell-based.

Compound `OC[C@H]1O[C@@H](c2ccc(Cl)c(Cc3ccc(O[C@H]4CCOC4)cc3)c2)[C@H](O)[C@@H](O)[C@@H]1O` [empagliflozin] yielded an EC50 of 4.3 nM.

One may read the EC50 as the concentration needed to bring the measured effect to its halfway point. Higher therefore signals weaker potency.
